What was measured:
[1] = Food effect on pharmacokinetics of TQB3616 capsule, crossover phase I trial, plasma concentration by LC-MS/MS; assay type: in vivo, human; settings: for AUC_Extrap / t1/2 / λZ / AUC0-t / AUC0-∞ / Cmax: mean ± SD; for AUC0-t / AUC0-∞ / Cmax / Tmax: single oral 180 mg; for Tmax: median (min, max)
Description: This was a randomized, open-label, single-center, two-period, two-sequence crossover early phase I clinical trial to evaluate the food effect on the pharmacokinetics of TQB3616 capsules in healthy subjects. The trial was conducted at Affiliated Hospital of Changchun University of Chinese Medicine and the protocol was approved by the Ethics Committee of the Affiliated Hospital of Changchun University of Chinese Medicine (CCZYFYLL 2021-006). The ethical approval process of this study complied with the requirements of Good Clinical Practice (GCP), the Declaration of Helsinki and the relevant domestic laws and regulations. All subjects had provided written informed consent before the study.
Subjects were admitted to the research center 2 days prior to drug administration and randomly assigned to either Group A or Group B at a 1:1 ratio. Group A, subjects received the study drug under fasted condition in period one and under fed condition in period 2. Conversely, in Group B, subjects received the study drug under fed conditions in the first period and under fasting conditions in the second period. The study employed a crossover design, with a washout period of at least 19 days between the two treatment periods.
The study protocol mandated that subjects take the medication after an overnight fast lasting at least 10 h. In a fasted condition, subjects consumed a 180 mg TQB3616 capsule with 240 mL of warm water, ensuring they remained and fasted for an additional 4 h post-dose. In a fed condition, subjects consumed a 180 mg TQB3616 capsule with 240 mL of warm water after consuming a high-fat, high-calorie breakfast (approximately 800–1,000 kcal, Supplementary table) 30 min prior to adminstration, subjects began their breakfast and completed the meal within the next 30 min. Capsules were swallowed whole without chewing.
Pharmacokinetic (PK) samples were collected at specific times: 0 h (within 60 min prior to dosing), 1 h, 2 h, 4 h, 5 h, 5.5 h, 6 h, 6.5 h, 7 h, 7.5 h, 8 h, 12 h, 24 h, 48 h, 72 h, 120 h, 168 h and 264 h post-dosing, totaling 18 sampling points. At each scheduled time, approximately 3 mL of blood was collected with a pre-chilled EDTA-K2 tubes. After gentle 180° inversion (×4) for homogenization, samples were immediately transferred to an ice bath. All blood specimens were centrifuged at 3,500 rpm for 10 min within 30 min of collection. The obtained plasma was aliquoted and stored at −80°C ± 10°C until batch analysis.
(§1) Plasma concentrations of TQB3616 were quantified using a validated liquid chromatography-tandem mass spectrometry (LC-MS/MS) method. Calibration standards and quality control samples (K2-EDTA plasma matrix) were prepared using [D8]-TQB3616 as the internal standard. Protein precipitation extraction from 100 μL plasma was performed followed by chromatographic separation on a C18 column (50 × 2.1 mm, 1.7 μm). Mass transitions m/z 447.1→431.3 (TQB3616) and m/z 455.2→439.3 (IS) were monitored for quantification.
Phoenix WinNonlin (version 8.3.4) was used to calculate pharmacokinetic parameters, including: […] (Tmax), area under the curve (AUC) from time zero to the last measurable concentration (AUC0-t), AUC from time zero to observed infinity (AUC0- ∞ ), peak concentration (Cmax),terminal half-life of analyte in plasma (t1/2), terminal rate constant (λz), and extrapolated AUC percentage (AUCextrp (%)). Other statistical analyses were performed using SAS (version 9.4). All tests were considered statistically significant at p < 0.05.
Based on the Pharmacokinetics Parameter Set (PKPS), main parameters were summarized by fasting/fed groups using sample size, arithmetic mean, standard deviation, coefficient of variation, median, minimum, maximum, as well as geometric mean and geometric coefficient of variation.
For the food-effect equivalence analysis set (BES), a mixed-effects model analyzed natural log-transformed Cmax, AUC0-t, and AUC0- ∞ . […]

MCF-7 tumor = tested on: MCF-7 tumor; parameters: method as in unpublished data; settings: ref unpublished data, cited from earlier work
[2] = Stability of TQB3616 in LC-MS/MS method validation (K2-EDTA plasma matrix); assay type: in vitro ADME
Description: as §1
This study undertook a comprehensive validation of the LC-MS/MS methodology for quantifying TQB3616. The validated quantitative range for TQB3616 was established between 0.3 ng/mL and 300 ng/mL. […] Sample dilution integrity was confirmed at 20-fold dilution.

CDK4/6 = tested on: CDK4/6; parameters: method as in unpublished data; settings: preclinical; ref unpublished data; cited from earlier work
[3] = parameters: method as in unpublished data; settings: ref unpublished data; cited from earlier work
[4] = Safety analysis, adverse events (CTCAE version 5.0) in the food-effect trial; assay type: in vivo, human
Description: The safety analysis utilized the safety data set (SS), comprising all subjects receiving TQB3616 with recorded safety assessments. The safety assessments indicators included adverse events, serious adverse events, laboratory tests (routine blood, blood biochemistry, urinalysis, and coagulation), vital signs ([…]), 12-lead electrocardiogram, and physical examination. The frequency, type, extent, and comorbid medications of all treatment-emergent adverse events (TEAEs) occurring during treatment were recorded systematically documented. For severity, adverse events were rated and documented using the National Cancer Institute-Common Terminology Criteria for Adverse Events (CTCAE) version 5.0. The Medical Dictionary for Regulatory Activities (MedDRA) was used to encode the classification of adverse events. Any adverse events observed during the trial were monitored until resolution, return to baseline levels, or stabilization the subject’s condition.

[5] = parameters: method as in unpublished data; settings: ref unpublished data, cited from earlier work
[6] = tested on: HR+/HER2-breast cancer MCF-7 cells; parameters: method as in unpublished data; settings: in vitro; ref unpublished data; cited from earlier work
[7] = coefficient of variation, equivalence analysis fed vs fasted
[8] = both periods, 16 subjects in safety set

## CC(C)c1c2cc(-c3nc(Nc4ccc(N5CCNCC5)cn4)ncc3F)ccc2nn1C [TQB3616]
[1]; Fasted (n = 11)
  AUC_Extrap: 7.57 ± 3.29%
  t1/2: 71.27 ± 11.83 h
  λZ: 0.01 ± 0.002 h⁻¹
  AUC0-t: 3,634.80 ± 2,174.18 h ^a ng/mL
  AUC0-∞: 3,920.86 ± 2,325.20 h ^a ng/mL
  Cmax: 60.39 ± 37.17 ng/mL
  Tmax: 6.0 (5.0, 24.0) h
[1]; Fasted, n = 11
  AUC0-t GeoMean: 3,303.72 h*ng/mL
  AUC0-∞ GeoMean: 3,584.79 h*ng/mL
  Cmax GeoMean: 48.47 ng/mL
[1]; Fed (n = 13)
  AUC_Extrap: 6.97 ± 2.90%
  t1/2: 68.95 ± 10.68 h
  λZ: 0.01 ± 0.002 h⁻¹
  AUC0-t: 5305.30 ± 1948.11 h ^a ng/mL
  AUC0-∞: 5710.59 ± 2,100.68 h ^a ng/mL
  Cmax: 75.39 ± 28.34 ng/mL
  Tmax: 7.0 (7.0, 12.0) h
[1]; Fed, n = 13
  AUC0-t GeoMean: 4792.51 ng·h/mL
  AUC0-∞ GeoMean: 5130.98 ng·h/mL
  Cmax GeoMean: 71.76 ng/mL
[1]; [7]
  AUC0-t CV: 26.51%
  AUC0-∞ CV: 26.07%
  Cmax CV: 53.42%
[1]; fasted as the reference
  AUC0-t Fed/Fasted Ratio (geometric mean ratio): 145.06%
  AUC0-∞ Fed/Fasted Ratio (geometric mean ratio): 143.13%
  Cmax Fed/Fasted Ratio (geometric mean ratio): 148.04%
[1]; fasting
  AUC0-t: 3,634.80 ± 2,174.18 h·ng/mL
  AUC0-∞: 3,920.86 ± 2,325.20 h·ng/mL
[1]; fed compared with fasted
  increase of AUC0-t by food intake: 45.95%
  increase of AUC0-∞ by food intake: 45.65%
  rise in AUC with a meal: 45%
[1]; fed
  AUC0-t: 5305.30 ± 1948.11 ng·h/mL
  AUC0-∞: 5710.59 ± 2,100.68 h·ng/mL
[1]; females
  postprandial increase in AUC: 69.9%
  postprandial increase in Cmax: 33.5%
[1]; males
  postprandial increase in AUC: 38.2%
  postprandial increase in Cmax: 20.9%
MCF-7 tumor; human MCF-7 xenograft model
  anti-tumor efficacy compared with Palbociclib: comparable anti-tumor efficacy to Palbociclib at reduced dosage levels
MCF-7 tumor; in vivo
  MCF-7 tumor growth: suppresses MCF-7 tumor growth in vivo
[2]; method validation
  freeze-thaw stability: endured four freeze-thaw cycles
  stability at room temperature: at least 23.5 h
[2]; −20°C
  long-term stability: 89 days
[2]; −80°C
  long-term stability: 89 days
CDK4/6
  inhibition of CDK4/6 kinase activity: potent inhibitory effects
[3]
  preclinical toxicity findings: gastrointestinal toxicity and hematological/serum biochemical abnormalities were observed at medium-to-high dose levels
[4]; Fasted
  TEAE Abdominal discomfort, n (%): 7.42%
  TEAE Abdominal pain, n (%): 4.94%
  TEAE Blood bilirubin increased, n (%): 1.23%
  TEAE Blood triglycerides increased, n (%): 7.42%
  TEAE Diarrhea, n (%): 13.58%
  TEAE Nausea, n (%): 7.42%
  TEAE Protein total decreased, n (%): 1.23%
  TEAE Thrombocyte count decreased, n (%): 1.23%
  TEAE White blood cells urine positive, n (%): 2.47%
  TEAE emesis, n (%): 6.17%
  TEAE laboratory tests, n (%): 13.58%
[4]; Fed
  TEAE Abdominal discomfort, n (%): 11.11%
  TEAE Abdominal pain, n (%): 2.47%
  TEAE Blood bilirubin increased, n (%): 1.23%
  TEAE Blood bilirubin unconjugated increased, n (%): 1.23%
  TEAE Blood triglycerides increased, n (%): 4.94%
  TEAE Diarrhea, n (%): 12.35%
  TEAE Gastrointestinal Disorders, n (%): 33.33%
  TEAE Head discomfort, n (%): 1.23%
  TEAE Nausea, n (%): 3.7%
  TEAE Nervous System Disorders, n (%): 1.23%
  TEAE Protein total decreased, n (%): 1.23%
  TEAE Red blood cells urine positive, n (%): 1.23%
  TEAE Urinary occult blood positive, n (%): 2.47%
  TEAE emesis, n (%): 3.7%
[4]; both periods
  adverse events related to the drug: 77
  drug-related adverse events of grade II: two
  serious adverse events, deaths, unexpected serious adverse reactions: No serious adverse events, deaths, or unexpected serious adverse reactions occurred
[4]; [8]
  subjects with adverse events: 16
  total adverse events (AEs): 81
[4]; fasted period (range: 0–10 h)
  average time to spontaneous resolution of gastrointestinal reactions: 3.2 h
[4]; fasted period (range: 1.7–7.3 h)
  average time of occurrence of gastrointestinal reactions post-dosing: 4.2 h
[4]; fed period (range: 0–9.8 h)
  average time to spontaneous resolution of gastrointestinal reactions: 2.2 h
[4]; fed period (range: 2.1–8.4 h)
  average time of occurrence of gastrointestinal reactions post-dosing: 4.3 h
[5]; continuous dosing
  time to steady-state plasma concentrations: approximately 7 days
[5]; dose range 20–150 mg, single administration
  exposure increase with dose escalation: exposure increase ratio slightly exceeding the dose increase ratio
[6]
  inhibition of proliferation of MCF-7 cells: selectively inhibits proliferation

From publication PMC12163317, “The food effect on the pharmacokinetics of TQB3616 capsule in Chinse healthy subjects: a randomized, open-label, single-center, two-period, two-sequence crossover phase I clinical trial” (Frontiers in Pharmacology, 2025)
